According to US20230019491A1, “PYRIMIDINE TBK/IKKe INHIBITOR COMPOUNDS AND USES THEREOF” (Merck Patent GmbH, priority 2017, published 2023):

Columns and labels:
IKKε = molecular target: T1, IKKε (Homo sapiens, UniProt Q14164); assay: IKKε biochemical assay; details: 10 point 1:4 dose response, 30 uM top concentration, 90 min at 25° C., LabChip EZ Reader II; read-out: IKKε_IC50
T1 sequence (Q14164 1-716): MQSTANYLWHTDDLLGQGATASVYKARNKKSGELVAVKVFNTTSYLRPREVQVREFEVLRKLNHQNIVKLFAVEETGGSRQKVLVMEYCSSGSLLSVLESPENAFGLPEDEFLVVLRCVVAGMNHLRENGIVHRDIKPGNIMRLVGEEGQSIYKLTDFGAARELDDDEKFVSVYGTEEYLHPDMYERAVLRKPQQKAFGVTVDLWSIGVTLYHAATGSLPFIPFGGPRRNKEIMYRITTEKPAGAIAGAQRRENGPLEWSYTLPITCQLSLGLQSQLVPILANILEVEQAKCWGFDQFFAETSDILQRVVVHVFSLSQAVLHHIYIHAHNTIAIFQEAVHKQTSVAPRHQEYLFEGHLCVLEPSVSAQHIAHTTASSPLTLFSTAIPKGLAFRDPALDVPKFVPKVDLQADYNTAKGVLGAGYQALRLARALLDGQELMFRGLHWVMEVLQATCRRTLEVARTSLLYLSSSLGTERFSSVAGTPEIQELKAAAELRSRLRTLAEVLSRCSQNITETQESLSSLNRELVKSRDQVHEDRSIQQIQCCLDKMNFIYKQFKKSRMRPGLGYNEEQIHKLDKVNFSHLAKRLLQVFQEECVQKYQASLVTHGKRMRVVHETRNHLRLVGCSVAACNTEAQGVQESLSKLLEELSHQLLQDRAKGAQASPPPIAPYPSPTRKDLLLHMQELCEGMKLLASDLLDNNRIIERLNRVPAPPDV
Method in brief: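 Mobility-shift LabChip read-out followed a 90 min, 25° C. reaction of IKKε with substrate and test compound, with DMSO held at 1% final. Reactions were ended with stop buffer. Wells with 10 uM final staurosporine defined complete inhibition, and DMSO-only wells the uninhibited level.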

TBK1 = molecular target: T2, TBK1 (Homo sapiens, UniProt Q9UHD2); assay: TBK biochemical assay; details: 10 point 1:4 dose response, 30 uM top concentration, 90 min at 25° C., LabChip EZ Reader II; read-out: TBK1_IC50
T2 sequence (Q9UHD2 1-729): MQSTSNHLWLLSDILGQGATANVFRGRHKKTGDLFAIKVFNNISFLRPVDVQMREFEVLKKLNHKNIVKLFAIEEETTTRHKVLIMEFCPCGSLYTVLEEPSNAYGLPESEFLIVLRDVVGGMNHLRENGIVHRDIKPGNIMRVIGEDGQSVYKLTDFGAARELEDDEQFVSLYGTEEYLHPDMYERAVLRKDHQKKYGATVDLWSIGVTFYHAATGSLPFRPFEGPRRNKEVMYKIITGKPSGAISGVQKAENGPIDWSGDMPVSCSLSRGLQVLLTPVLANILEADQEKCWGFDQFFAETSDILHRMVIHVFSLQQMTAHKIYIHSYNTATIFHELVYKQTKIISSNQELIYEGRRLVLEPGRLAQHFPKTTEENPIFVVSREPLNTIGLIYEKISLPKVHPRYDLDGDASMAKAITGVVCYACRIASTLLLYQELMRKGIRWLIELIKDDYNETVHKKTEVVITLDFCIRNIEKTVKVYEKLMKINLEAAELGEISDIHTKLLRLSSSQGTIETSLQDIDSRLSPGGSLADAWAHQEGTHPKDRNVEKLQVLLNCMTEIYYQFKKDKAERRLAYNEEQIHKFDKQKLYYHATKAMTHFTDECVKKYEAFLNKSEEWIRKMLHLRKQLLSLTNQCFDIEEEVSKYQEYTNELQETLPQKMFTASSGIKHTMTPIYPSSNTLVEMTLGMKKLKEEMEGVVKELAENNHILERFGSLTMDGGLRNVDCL
Method in brief: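 Read-out was a Caliper LabChip mobility-shift assay, run after a 90-min, 25 °C reaction of TBK1 with substrate and compounds, quenched with stop buffer. Control wells received staurosporine at 10 uM final.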

COc1nc(Nc2nccc(-c3ccc(O[C@@H]4CCN(C(=O)[C@@H](C)O)C[C@@H]4F)c(C#N)c3)n2)ccc1N1CCN(C2COC2)CC1 [Example 117, 2-[(3S,4R)-3-Fluoro-1-((R)-2-hydroxy-propionyl)-piperidin-4-yloxy]-5-{2-[6-methoxy-5-(4-oxetan-3-yl-piperazin-1-yl)-pyridin-2-ylamino]-pyrimidin-4-yl}-benzonitrile]
IC50 (IKKε): < 100 nM
IC50 (TBK1): < 100 nM

COc1nc(Nc2nccc(-c3ccc(O[C@@H]4CCN(C(=O)[C@H](C)O)C[C@@H]4F)c(C#N)c3)n2)ccc1N1CCN(C2COC2)CC1 [Example 118, 2-[(3S,4R)-3-Fluoro-1-((S)-2-hydroxy-propionyl)-piperidin-4-yloxy]-5-{2-[6-methoxy-5-(4-oxetan-3-yl-piperazin-1-yl)-pyridin-2-ylamino]-pyrimidin-4-yl}-benzonitrile]
IC50 (IKKε): < 100 nM
IC50 (TBK1): < 100 nM

COc1nc(Nc2nccc(-c3ccc(OC4CCNCC4(F)F)c(C#N)c3)n2)ccc1N1CCN(C2COC2)CC1 (stereo not shown) [Example 119]
IC50 (IKKε): < 100 nM
IC50 (TBK1): < 100 nM

COc1nc(Nc2nccc(-c3ccc(O[C@H]4CCN(C(=O)[C@H](C)O)CC4(F)F)c(C#N)c3)n2)ccc1N1CCN(C2COC2)CC1 [Example 120, 2-([3,3-difluoro-1-[(2S)-2-hydroxypropanoyl]piperidin-4-yl]oxy)-5-[2-([6-methoxy-5-[4-(oxetan-3-yl)piperazin-1-yl]pyridin-2-yl]amino)pyrimidin-4-yl]benzonitrile]
IC50 (IKKε): < 100 nM
IC50 (TBK1): < 100 nM

COc1nc(Nc2nccc(-c3ccc(O[C@@H]4CCN(C(=O)[C@H](C)O)CC4(F)F)c(C#N)c3)n2)ccc1N1CCN(C2COC2)CC1 [Example 122, 2-[[(4R)-3,3-difluoro-1-[(2S)-2-hydroxypropanoyl]piperidin-4-yl]oxy]-5-[2-([6-methoxy-5-[4-(oxetan-3-yl)piperazin-1-yl]pyridin-2-yl]amino)pyrimidin-4-yl]benzonitrile]
IC50 (IKKε): < 100 nM
IC50 (TBK1): < 100 nM

COc1nc(Nc2nccc(-c3ccc(OC4CCNCC4(F)F)c(C#N)c3)n2)ccc1N1CCN(C2COC2)[C@@H](C)C1 (stereo partly drawn) [Example 123, 2-(3,3-Difluoro-piperidin-4-yloxy)-5-{2-[6-methoxy-5-((S)-3-methyl-4-oxetan-3-yl-piperazin-1-yl)-pyridin-2-ylamino]-pyrimidin-4-yl}-benzonitrile]
IC50 (IKKε): < 100 nM
IC50 (TBK1): < 100 nM

COc1nc(Nc2nccc(-c3ccc(OC4CCNCC4(F)F)c(C#N)c3)n2)ccc1N1CCN(C2COC2)[C@H](C)C1 (stereo partly drawn) [Example 124, 2-(3,3-Difluoro-piperidin-4-yloxy)-5-{2-[6-methoxy-5-((R)-3-methyl-4-oxetan-3-yl-piperazin-1-yl)-pyridin-2-ylamino]-pyrimidin-4-yl}-benzonitrile]
IC50 (IKKε): < 100 nM
IC50 (TBK1): < 100 nM

COc1nc(Nc2nccc(-c3ccc(OC4CCN(C(=O)[C@@H](C)O)CC4(F)F)c(C#N)c3)n2)ccc1N1CCN(C2COC2)[C@@H](C)C1 (stereo partly drawn) [Example 125, 2-[3,3-Difluoro-1-((R)-2-hydroxy-propionyl)-piperidin-4-yloxy]-5-{2-[6-methoxy-5-((S)-3-methyl-4-oxetan-3-yl-piperazin-1-yl)-pyridin-2-ylamino]-pyrimidin-4-yl}-benzonitrile]
IC50 (IKKε): < 100 nM
IC50 (TBK1): < 100 nM

COc1nc(Nc2nccc(-c3ccc(OC4CCN(C(=O)[C@@H](C)O)CC4(F)F)c(C#N)c3)n2)ccc1N1CCN(C2COC2)[C@H](C)C1 (stereo partly drawn) [Example 126, 2-[3,3-Difluoro-1-((R)-2-hydroxy-propionyl)-piperidin-4-yloxy]-5-{2-[6-methoxy-5-((R)-3-methyl-4-oxetan-3-yl-piperazin-1-yl)-pyridin-2-ylamino]-pyrimidin-4-yl}-benzonitrile]
IC50 (IKKε): < 100 nM
IC50 (TBK1): < 100 nM

COc1nc(Nc2nccc(-c3ccc(OC4CCN(C(=O)[C@H](C)O)CC4(F)F)c(C#N)c3)n2)ccc1N1CCN(C2COC2)[C@@H](C)C1 (stereo partly drawn) [Example 127, 2-[3,3-Difluoro-1-((S)-2-hydroxy-propionyl)-piperidin-4-yloxy]-5-{2-[6-methoxy-5-((S)-3-methyl-4-oxetan-3-yl-piperazin-1-yl)-pyridin-2-ylamino]-pyrimidin-4-yl}-benzonitrile]
IC50 (IKKε): < 100 nM
IC50 (TBK1): < 100 nM

COc1nc(Nc2nccc(-c3ccc(OC4CCN(C(=O)[C@H](C)O)CC4(F)F)c(C#N)c3)n2)ccc1N1CCN(C2COC2)[C@H](C)C1 (stereo partly drawn) [Example 128, 2-[3,3-Difluoro-1-((S)-2-hydroxy-propionyl)-piperidin-4-yloxy]-5-{2-[6-methoxy-5-((R)-3-methyl-4-oxetan-3-yl-piperazin-1-yl)-pyridin-2-ylamino]-pyrimidin-4-yl}-benzonitrile]
IC50 (IKKε): < 100 nM
IC50 (TBK1): < 100 nM

COc1nc(Nc2nccc(-c3ccc(OC4CCNCC4(F)F)c(C#N)c3)n2)ccc1N1CCN(C2COC2)C[C@H]1C (stereo partly drawn) [Example 129, 2-(3,3-Difluoro-piperidin-4-yloxy)-5-{2-[6-methoxy-5-((R)-2-methyl-4-oxetan-3-yl-piperazin-1-yl)-pyridin-2-ylamino]-pyrimidin-4-yl}-benzonitrile]
IC50 (IKKε): < 100 nM
IC50 (TBK1): < 100 nM

COc1nc(Nc2nccc(-c3ccc(OC4CCN(C(=O)[C@@H](C)O)CC4(F)F)c(C#N)c3)n2)ccc1N1CCN(C2COC2)C[C@H]1C (stereo partly drawn) [Example 130, 2-[3,3-Difluoro-1-((R)-2-hydroxy-propionyl)-piperidin-4-yloxy]-5-{2-[6-methoxy-5-((R)-2-methyl-4-oxetan-3-yl-piperazin-1-yl)-pyridin-2-ylamino]-pyrimidin-4-yl}-benzonitrile]
IC50 (IKKε): < 100 nM
IC50 (TBK1): < 100 nM

COc1nc(Nc2nccc(-c3ccc(OC4CCN(C(=O)[C@H](C)O)CC4(F)F)c(C#N)c3)n2)ccc1N1CCN(C2COC2)C[C@@H]1C (stereo partly drawn) [Example 131, 2-[3,3-Difluoro-1-((S)-2-hydroxy-propionyl)-piperidin-4-yloxy]-5-{2-[6-methoxy-5-((S)-2-methyl-4-oxetan-3-yl-piperazin-1-yl)-pyridin-2-ylamino]-pyrimidin-4-yl}-benzonitrile]
IC50 (IKKε): < 100 nM
IC50 (TBK1): < 100 nM

COc1nc(Nc2nccc(-c3ccc(OC4CCN(C(=O)[C@H](C)O)CC4(F)F)c(C#N)c3)n2)ccc1N1CCN(C2COC2)C[C@H]1C (stereo partly drawn) [Example 132, 2-[3,3-Difluoro-1-((S)-2-hydroxy-propionyl)-piperidin-4-yloxy]-5-{2-[6-methoxy-5-((R)-2-methyl-4-oxetan-3-yl-piperazin-1-yl)-pyridin-2-ylamino]-pyrimidin-4-yl}-benzonitrile]
IC50 (IKKε): < 100 nM
IC50 (TBK1): < 100 nM

COc1nc(Nc2nccc(-c3ccc(OC4CCN(C(=O)[C@@H](O)CO)CC4(F)F)c(C#N)c3)n2)ccc1N1CCN(C2COC2)C[C@H]1C (stereo partly drawn) [Example 133, 2-[1-((S)-2,3-Dihydroxy-propionyl)-3,3-difluoro-piperidin-4-yloxy]-5-{2-[6-methoxy-5-((R)-2-methyl-4-oxetan-3-yl-piperazin-1-yl)-pyridin-2-ylamino]-pyrimidin-4-yl}-benzonitrile]
IC50 (IKKε): < 100 nM
IC50 (TBK1): < 100 nM

N#Cc1cc(-c2ccnc(Nc3ccc(N4CCN(C5CC5)CC4)cc3)n2)ccc1OC1CCOCC1 [Example 134, 5-{2-[4-(4-Cyclopropyl-piperazin-1-yl)-phenylamino]-pyrimidin-4-yl}-2-(tetrahydro-pyran-4-yloxy)-benzonitrile]
IC50 (IKKε): < 100 nM
IC50 (TBK1): < 100 nM
